In US10993983B2, “Cyclic peptide epitopes and small-molecule mimics for inducing autophagy” (TRUSTEES OF TUFTS COLLEGE, priority 2016, dated 2021):
Marks after values point to notes of the source that are not given here.

What was measured:
p62 = p62 degradation assay (p62/actin immunoblot);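 for Activity (μM) 10, p62/actin assay activity: HeLa cells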;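 for Activity (μM) 100, p62/actin assay activity: HeLa cells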;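 for Activity (μM) 30, p62/actin assay activity: HeLa cells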;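 for Activity (μM) 50, p62/actin assay activity: HeLa cells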; format: cell-based; set-up: key: −: activity not reported; 0: decreased vs. WT; +: similar to WT; ++: modest increase vs. WT; +++: significant increase vs. WT; details: first symbol; for Activity (μM) 10, p62/actin assay activity: 10 μM; for Activity (μM) 30, p62/actin assay activity: 30 μM; for Activity (μM) 50, p62/actin assay activity: 50 μM; for Activity (μM) 100, p62/actin assay activity: 100 μM
Description: (§1) Cells were treated with peptide in OPTI-MEM (Thermo Scientific) acidified with 0.15% (v/v) 6N HCl for 3 hour. Cells were rinsed with Dulbecco's phosphate buffered saline (PBS) and lysed in lysis buffer (20 mM HEPES, 150 mM NaCl, 1 mM EDTA, 1% Triton X-100, protease inhibitor cocktail (Roche) on ice for 1 hour. Cell lysates were centrifuged at 16,000 g for 10 min at 4° C. and analyzed by SDS-PAGE and transferred to PVDF membranes. The membranes were blocked 5% non-fat dry milk (NFDM) in PBST (PBS+0.05% Tween-20) for 1 hour, then incubated overnight at 4° C. with primary antibody in 5% NFDM in PBST. The blots were washed with PBST and incubated with HRP-conjugated secondary antibodies diluted in 5% NFDM in PBST for 1 hour at room temperature. Membranes were washed with PBST and visualized with SuperSignal West Pico Chemiluminescent Substrate (Thermo Scientific). Semi-quantitative results were obtained by noting the lowest concentration at which both p62 degradation and LC3-I to LC3-II conversion were observed.
(§2) Compounds 1-10 were evaluated using the assays described in Examples 4 and 5. Activity for each compound was measured in the p62 degradation assay and the LC3 marker assay as described herein. The activity at each concentration of peptide is given as, for example, (0/+) where 0 would be the p62/actin assay activity and + would be the LC3 assay activity.

LC3 = LC3 marker assay (LC3-I to LC3-II conversion immunoblot);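 for Activity (μM) 10, LC3 assay activity: HeLa cells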;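 for Activity (μM) 100, LC3 assay activity: HeLa cells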;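 for Activity (μM) 30, LC3 assay activity: HeLa cells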;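 for Activity (μM) 50, LC3 assay activity: HeLa cells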; format: cell-based; set-up: key: −: activity not reported; 0: decreased vs. WT; +: similar to WT; ++: modest increase vs. WT; +++: significant increase vs. WT; details: second symbol; for Activity (μM) 10, LC3 assay activity: 10 μM; for Activity (μM) 30, LC3 assay activity: 30 μM; for Activity (μM) 50, LC3 assay activity: 50 μM; for Activity (μM) 100, LC3 assay activity: 100 μM
Description: as §1, §2

[1] = Table 8, 10 μM marked * (footnote: data taken at 20 instead of 30 μM)
[2] = 5 μM, Table 8, control compound T25

Sequence	Activity (μM) 10, p62/actin assay activity (p62; Table 6, control DMSO)	Activity (μM) 30, p62/actin assay activity (p62; Table 6, control DMSO)	Activity (μM) 50, p62/actin assay activity (p62; Table 6, control DMSO)	Activity (μM) 100, p62/actin assay activity (p62; Table 6, control DMSO)	Activity (μM) 10, LC3 assay activity (LC3; Table 6, control DMSO)	Activity (μM) 30, LC3 assay activity (LC3; Table 6, control DMSO)	Activity (μM) 50, LC3 assay activity (LC3; Table 6, control DMSO)	Activity (μM) 100, LC3 assay activity (LC3; Table 6, control DMSO)	Activity (μM) 30, p62/actin assay activity (p62; Table 7, control compound T25)	Activity (μM) 50, p62/actin assay activity (p62; Table 7, control compound T25)	Activity (μM) 100, p62/actin assay activity (p62; Table 7, control compound T25)	Activity (μM) 30, LC3 assay activity (LC3; Table 7, control compound T25)	Activity (μM) 50, LC3 assay activity (LC3; Table 7, control compound T25)	Activity (μM) 100, LC3 assay activity (LC3; Table 7, control compound T25)	also measured
VCNATCHIWH [Compound 23]	+	++/++	+++	+++	0	++/++	++	++							
VCNATCHIWH [Compound 24]	++/++	+++	+++	+++	++/++	++	++	++							
VCNATCHIWH [Compound 25]	++/++	++/++	+++/+++	+++/+++	++/++	++/++	+++/+++	+++/+++							
VCNATCHIWH [Compound 26]	++	+++/+++	+++/+++	+++/+++	+++	+++/+++	+++/+++	+++/+++							
VCNATCHIWH [Compound 27]									0/0	0/0	0/0	0/0	0/0	0/0	
VCNATCHIWH [Compound 28]									0/0	0/0	+++	0/0	0/0	0	
VCNATCHIWH [Compound 29]									0/0	+	++	0/0	0	0	
VCNATCHIWH [Compound 30]									0/0	0/0	+	0/0	0/0	0	Activity (μM) 30, p62/actin assay activity (p62; Table 8, control compound T25): 0/0; Activity (μM) 50, p62/actin assay activity (p62; Table 8, control compound T25): 0/0; Activity (μM) 100, p62/actin assay activity (p62; Table 8, control compound T25): 0/0; Activity (μM) 10, starred cell, p62/actin assay activity (p62; [1]): 0/0*; Activity (μM) 30, LC3 assay activity (LC3; Table 8, control compound T25): 0/0; Activity (μM) 50, LC3 assay activity (LC3; Table 8, control compound T25): 0/0; Activity (μM) 100, LC3 assay activity (LC3; Table 8, control compound T25): 0/0; Activity (μM) 10, starred cell, LC3 assay activity (LC3; [1]): 0/0*
VCNATCHIWH [Compound 31]									0/0	0/0	0/0	0/0	0/0	0/0	
VCNATCHIWH [Compound 32]									++	++	++	0	0	0	
VCNATCHIWH [Compound 33]															Activity (μM) 5, p62/actin assay activity (p62; [2]): 0/0; Activity (μM) 10, p62/actin assay activity (p62; Table 8, control compound T25): 0; Activity (μM) 30, p62/actin assay activity (p62; Table 8, control compound T25): +++; Activity (μM) 50, p62/actin assay activity (p62; Table 8, control compound T25): +++/+++; Activity (μM) 100, p62/actin assay activity (p62; Table 8, control compound T25): +++/+++; Activity (μM) 5, LC3 assay activity (LC3; [2]): 0/0; Activity (μM) 10, LC3 assay activity (LC3; Table 8, control compound T25): +; Activity (μM) 30, LC3 assay activity (LC3; Table 8, control compound T25): ++; Activity (μM) 50, LC3 assay activity (LC3; Table 8, control compound T25): +++/+++; Activity (μM) 100, LC3 assay activity (LC3; Table 8, control compound T25): +++/+++
